Source: US20120318262A1 (priority 2011, published 2012)
pIC50: −log10 of the molar value.

How the values were obtained:
Wnt signaling = experiment: TOPflash reporter assay, HEK 293 STF cells treated with Wnt3a; format: cell-based
Procedure: Graph represents mean±s.e.m of TOPflash signal normalized to cell number (performed in quadruplicate). […] Data shown represent mean of four independent amplification reactions, graphed as relative expression to unstimulated cells. Expression levels were normalized to β-actin mRNA. Error bars, RQ values with 95% confidence.
CK1α immunoprecipitated from lysates was incubated with purified β-catenin (100 nM) in kinase assay containing (^γ32P)ATP. Samples were processed for SDS-PAGE/autoradiography. As control, immunoprecipitates were treated with the CK1 inhibitor, CKI-7 (1 μM). […] HA immunoprecipitates were analyzed by LCMS. Graph represents mean±s.e.m. of relative abundance of pyrvinium normalized to bead control (performed in triplicate). […] (FIG. 9C) Structure of VU-WS113. […] (FIG. 9F) CK1α (100 nM) was incubated with recombinant casein (100 nM) in the presence or absence of compounds in a kinase reaction containing [γ32P]ATP. […] Mean±s.e.m. is shown (performed in triplicates).

CK1α = CK1α (Homo sapiens, UniProt P48729); experiment: kinase activity of purified recombinant CK1α (Tau, casein substrates; kinase panel); format: biochemical
Chain of CK1α (P48729 whole entry): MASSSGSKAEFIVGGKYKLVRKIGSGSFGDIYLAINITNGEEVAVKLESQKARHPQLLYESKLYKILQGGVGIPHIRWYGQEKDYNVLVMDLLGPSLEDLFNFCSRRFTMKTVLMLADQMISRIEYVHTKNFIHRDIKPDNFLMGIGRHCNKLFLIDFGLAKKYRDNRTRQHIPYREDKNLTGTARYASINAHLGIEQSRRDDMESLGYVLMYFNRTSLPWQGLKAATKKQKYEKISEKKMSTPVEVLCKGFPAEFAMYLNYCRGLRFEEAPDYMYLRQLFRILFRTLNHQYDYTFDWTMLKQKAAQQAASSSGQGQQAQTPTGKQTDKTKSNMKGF
Procedure: CK1α immunoprecipitated from lysates was incubated with purified β-catenin (100 nM) in kinase assay containing (^γ32P)ATP. Samples were processed for SDS-PAGE/autoradiography. As control, immunoprecipitates were treated with the CK1 inhibitor, CKI-7 (1 μM). […] HA immunoprecipitates were analyzed by LCMS. […] (FIG. 9C) Structure of VU-WS113. […] (FIG. 9F) CK1α (100 nM) was incubated with recombinant casein (100 nM) in the presence or absence of compounds in a kinase reaction containing [γ32P]ATP. […] Mean±s.e.m. is shown (performed in triplicates).

C57Bl/6 mice [1] = experiment: 2 mm ear punch wound model; format: in vivo; conditions: day 30
Text: (FIG. 8A) Low magnification (4×) view of H&E stained slide showing epithelial repair of wounded skin treated with 211 at 30 days after injury. […] (FIGS. 8C-D) represent H&E of low (10×) and high (20×) magnification view of pyrvinium-treated ears. (FIGS. 8E-F) Trichrome blue staining showing low (FIG. 8E, 10×) and high power (FIG. 8F, 20×) view of pyrvinium-repaired ear.
The ears of six month old C57BL/6 mice were wounded by a 2 mm ear punch (n=3). […] The wounds were monitored over a period of 1 month and the digital photographs of the healing ears were taken periodically. […] The mice were sacrificed at day 30 and histological analysis of the wounded ear was performed.
FIGS. 8C-D show H&E stained slide of low (10×) and high (20×) magnifications of pyrvinium-treated ears.

C57Bl/6 mice [2] = experiment: myocardial infarct model, daily IP injection, Ki67/Sca1 histology
Text: Myocardial infarcts were induced in male C57Bl/6 mice by coronary ligation. A sham-injured cohort underwent all aspects of the procedure except ligation of the coronary artery. […] Mice were sacrificed (n=3 for each time point and each condition) on days 7, 9 and 15 after injury. Hearts were isolated for histologic analysis.

C57Bl/6 mice [3] = format: in vivo; conditions: p<0.05
Text: FIGS. 5A-D. Mouse MI model. Representative mouse EKG tracings pre (FIG. 5A) and post (FIG. 5B) coronary artery ligation. […] Arrows mark lateral and posterior left ventricle (LV). LVIDD, LVIDS=LV internal diameter at systole and […], respectively. RV=right ventricle. […] Cardiac dimensions were obtained from 2-D guided M-mode images (100 frames/sec) and were read blinded using short axis and a parasternal long-axis views with the leading edge method. All echo measurements were averaged over 3 consecutive beats on unsedated mice at 7 and 30 days after infarction. Statistical significance assessed by the Wilcoxon rank sum test.
Ventricular remodeling and cardiac functional parameters will be assessed by echo.
Mammalian cardiomyocytes irreversibly withdraw from the cell cycle soon after birth and undergo terminal differentiation. […] Therefore, cardiac injury causes permanent myocardial loss and cardiac dysfunction. […] Proliferation was assessed by immunostaining for Ki-67.

Row | Structure (SMILES) | inhibition of TOPflash / Wnt signaling (Wnt signaling; Wnt3a) | activation of CK1α (CK1α) | histology of wounded ear (C57Bl/6 mice [1]; listed as Cmpd 113) | histology of wounded ear (C57Bl/6 mice [1]; listed as compound 113) | Ki-67+ cells co-labeled with Sca1+ antibody (C57Bl/6 mice [2]; 40 μg/kg IP) | Sca1+ CPCs share of Wnt-inhibitor responsive population (C57Bl/6 mice [2]; 40 μg/kg IP) [%] | increase in left ventricular, peri-infarct Ki67+ cells (C57Bl/6 mice [2]; 40 μg/kg IP daily through day 6, 7-9 days after MI) | post-infarct proliferation of cardiac progenitors (C57Bl/6 mice [2]; 7 d after injury, control C-211) | pIC50 (Wnt signaling; Wnt3a-conditioned media, 24 hours, read-out: IC50 of TOPflash (Wnt signaling) inhibition) | average difference in fractional shortening between days 7 and 30 (C57Bl/6 mice [3])
1 | Cc1cc(C(=O)Nc2ccc3cc(CN4CCOCC4)ccc3n2)c(C)n1-c1ccccc1 [VU-WS113, 2,5-dimethyl-N-(6-(morpholinomethyl)quinolin-2-yl)-1-phenyl-1H-pyrrole-3-carboxamide] | retained the capacity to inhibit Wnt signaling | activate CK1α | injured hole was repaired | Injured hole was repaired | at least 50% | > 60 | 10-13 fold | significantly enhances post-infarct proliferation of cardiac progenitors |  | 
2 | Cc1cc(/C=C/c2ccc3cc(N(C)C)ccc3[n+]2C)c(C)n1-c1ccccc1 [pyrvinium, 6-(Dimethylamino)-2-[2-(2,5-dimethyl-1-phenyl-1H-pyrrol-3-yl)ethenyl]-1-methylquinolinium, reference compound] |  |  |  |  |  |  |  |  | ~8.00 | 22.3±5.2
